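All cell lines were grown in 96-well plates and treated with compound for 48 hours. TGI denotes the concentration required for complete inhibition of growth.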

In the first assay the test system is KM12 colon. Put plainly: inhibition of tumour cell growth, NCI panel, 48 h.
For `CON(C)C(=O)C1CCCO1` (stereo unspecified), the TGI is above 100 µM.

As to `COc1ccc([C@H]2C=[N+]([O-])O[C@H](OC3CCCC3)[C@@H]2OC(C)=O)cc1OC`, the TGI is 72.4 µM.

`O=[N+]([O-])c1cccc2c(N=Nc3ccc4ccccc4c3O)c(O)cc(S(=O)(=O)O)c12` showed a TGI above 100 µM.

A further assay relates to SK-MEL-2 melanoma. Put plainly: inhibition of tumour cell growth, NCI panel, 48 h.
Compound `CON(C)C(=O)C1CCCO1` (stereo unspecified) yielded a TGI above 100 µM.

Compound `O=C1OC(c2ccccc2)N(C(=O)c2ccccc2)C1Cc1ccc(OCc2ccccc2)cc1` (stereo unspecified) registered a TGI above 100 µM.

`COc1ccc([C@H]2C=[N+]([O-])O[C@H](OC3CCCC3)[C@@H]2OC(C)=O)cc1OC` had a TGI above 100 µM.

With `O=[N+]([O-])c1cccc2c(N=Nc3ccc4ccccc4c3O)c(O)cc(S(=O)(=O)O)c12`, the TGI is above 100 µM.

For a further assay, the system named is CAKI-1 renal. Put plainly: inhibition of tumour cell growth, NCI panel, 48 h.
Compound `CON(C)C(=O)C1CCCO1` (stereo unspecified) registered a TGI above 100 µM.

`COc1ccc([C@H]2C=[N+]([O-])O[C@H](OC3CCCC3)[C@@H]2OC(C)=O)cc1OC` came in with a TGI of 29.3 µM.

In turn, `O=[N+]([O-])c1cccc2c(N=Nc3ccc4ccccc4c3O)c(O)cc(S(=O)(=O)O)c12` had a TGI above 100 µM.

Another assay deals with COLO 205 colon. Put plainly: inhibition of tumour cell growth, NCI panel, 48 h.
The compound `CON(C)C(=O)C1CCCO1` (stereo unspecified) had a TGI above 100 µM.

`O=C1OC(c2ccccc2)N(C(=O)c2ccccc2)C1Cc1ccc(OCc2ccccc2)cc1` (stereo unspecified) had a TGI above 100 µM.

The compound `COc1ccc([C@H]2C=[N+]([O-])O[C@H](OC3CCCC3)[C@@H]2OC(C)=O)cc1OC` had a TGI of 30.9 µM.

In another assay the test system is U251 CNS. Put plainly: inhibition of tumour cell growth, NCI panel, 48 h.
Regarding `CON(C)C(=O)C1CCCO1` (stereo unspecified), the TGI is above 100 µM.

In the case of `O=C1OC(c2ccccc2)N(C(=O)c2ccccc2)C1Cc1ccc(OCc2ccccc2)cc1` (stereo unspecified), the TGI is above 100 µM.

`COc1ccc([C@H]2C=[N+]([O-])O[C@H](OC3CCCC3)[C@@H]2OC(C)=O)cc1OC`: the TGI was above 100 µM.

Compound `O=[N+]([O-])c1cccc2c(N=Nc3ccc4ccccc4c3O)c(O)cc(S(=O)(=O)O)c12` had a TGI above 100 µM.

A further assay deals with A498 renal. Put plainly: inhibition of tumour cell growth, NCI panel, 48 h.
For `CON(C)C(=O)C1CCCO1` (stereo unspecified), the TGI was above 100 µM.

`O=C1OC(c2ccccc2)N(C(=O)c2ccccc2)C1Cc1ccc(OCc2ccccc2)cc1` (stereo unspecified) came in with a TGI of 33.5 µM.

Turning to `COc1ccc([C@H]2C=[N+]([O-])O[C@H](OC3CCCC3)[C@@H]2OC(C)=O)cc1OC`, the TGI is above 100 µM.

In another assay the test system is ACHN renal. Put plainly: inhibition of tumour cell growth, NCI panel, 48 h.
For `CON(C)C(=O)C1CCCO1` (stereo unspecified), the TGI was above 100 µM.

Compound `O=C1OC(c2ccccc2)N(C(=O)c2ccccc2)C1Cc1ccc(OCc2ccccc2)cc1` (stereo unspecified) had a TGI above 100 µM.

`COc1ccc([C@H]2C=[N+]([O-])O[C@H](OC3CCCC3)[C@@H]2OC(C)=O)cc1OC` registered a TGI of 88.4 µM.

Regarding `O=[N+]([O-])c1cccc2c(N=Nc3ccc4ccccc4c3O)c(O)cc(S(=O)(=O)O)c12`, the TGI was above 100 µM.

For a further assay, the system named is HOP-92 NSCLC. Put plainly: inhibition of tumour cell growth, NCI panel, 48 h.
The compound `CON(C)C(=O)C1CCCO1` (stereo unspecified) gave a TGI above 100 µM.

`O=C1OC(c2ccccc2)N(C(=O)c2ccccc2)C1Cc1ccc(OCc2ccccc2)cc1` (stereo unspecified) had a TGI of 53.4 µM.

`COc1ccc([C@H]2C=[N+]([O-])O[C@H](OC3CCCC3)[C@@H]2OC(C)=O)cc1OC` displayed a TGI of 32.9 µM.

Compound `O=[N+]([O-])c1cccc2c(N=Nc3ccc4ccccc4c3O)c(O)cc(S(=O)(=O)O)c12` gave a TGI above 100 µM.

The next assay deals with SF-539 CNS. Put plainly: inhibition of tumour cell growth, NCI panel, 48 h.
In turn, `CON(C)C(=O)C1CCCO1` (stereo unspecified) yielded a TGI above 100 µM.

`O=C1OC(c2ccccc2)N(C(=O)c2ccccc2)C1Cc1ccc(OCc2ccccc2)cc1` (stereo unspecified) came in with a TGI above 100 µM.

Turning to `COc1ccc([C@H]2C=[N+]([O-])O[C@H](OC3CCCC3)[C@@H]2OC(C)=O)cc1OC`, the TGI is 38 µM.

In another assay the test system is HS 578T breast. Put plainly: inhibition of tumour cell growth, NCI panel, 48 h.
Compound `CON(C)C(=O)C1CCCO1` (stereo unspecified) returned a TGI above 100 µM.

The compound `O=C1OC(c2ccccc2)N(C(=O)c2ccccc2)C1Cc1ccc(OCc2ccccc2)cc1` (stereo unspecified) returned a TGI above 100 µM.

The compound `COc1ccc([C@H]2C=[N+]([O-])O[C@H](OC3CCCC3)[C@@H]2OC(C)=O)cc1OC` returned a TGI of 78.5 µM.

Regarding `O=[N+]([O-])c1cccc2c(N=Nc3ccc4ccccc4c3O)c(O)cc(S(=O)(=O)O)c12`, the TGI is above 100 µM.

Another assay deals with SR leukemia. Put plainly: inhibition of tumour cell growth, NCI panel, 48 h.
Turning to `CON(C)C(=O)C1CCCO1` (stereo unspecified), the TGI was above 100 µM.

`O=C1OC(c2ccccc2)N(C(=O)c2ccccc2)C1Cc1ccc(OCc2ccccc2)cc1` (stereo unspecified) displayed a TGI above 100 µM.

The compound `COc1ccc([C@H]2C=[N+]([O-])O[C@H](OC3CCCC3)[C@@H]2OC(C)=O)cc1OC` gave a TGI above 100 µM.

For the compound `O=[N+]([O-])c1cccc2c(N=Nc3ccc4ccccc4c3O)c(O)cc(S(=O)(=O)O)c12`, the TGI was above 100 µM.

A further assay concerns EKVX NSCLC. Put plainly: inhibition of tumour cell growth, NCI panel, 48 h.
In the case of `CON(C)C(=O)C1CCCO1` (stereo unspecified), the TGI was above 100 µM.

Consider `O=C1OC(c2ccccc2)N(C(=O)c2ccccc2)C1Cc1ccc(OCc2ccccc2)cc1` (stereo unspecified), for which the TGI was above 100 µM.

`COc1ccc([C@H]2C=[N+]([O-])O[C@H](OC3CCCC3)[C@@H]2OC(C)=O)cc1OC` registered a TGI of 50.2 µM.

The compound `O=[N+]([O-])c1cccc2c(N=Nc3ccc4ccccc4c3O)c(O)cc(S(=O)(=O)O)c12` yielded a TGI above 100 µM.

Another assay deals with OVCAR-8 ovarian. Put plainly: inhibition of tumour cell growth, NCI panel, 48 h.
`CON(C)C(=O)C1CCCO1` (stereo unspecified) gave a TGI above 100 µM.

The compound `O=C1OC(c2ccccc2)N(C(=O)c2ccccc2)C1Cc1ccc(OCc2ccccc2)cc1` (stereo unspecified) registered a TGI above 100 µM.

Turning to `COc1ccc([C@H]2C=[N+]([O-])O[C@H](OC3CCCC3)[C@@H]2OC(C)=O)cc1OC`, the TGI was determined as 62.2 µM.

Take `O=[N+]([O-])c1cccc2c(N=Nc3ccc4ccccc4c3O)c(O)cc(S(=O)(=O)O)c12`: the TGI was above 100 µM.

In another assay the test system is MDA-MB-435. Put plainly: inhibition of tumour cell growth, NCI panel, 48 h.
`CON(C)C(=O)C1CCCO1` (stereo unspecified) showed a TGI above 100 µM.

In the case of `O=C1OC(c2ccccc2)N(C(=O)c2ccccc2)C1Cc1ccc(OCc2ccccc2)cc1` (stereo unspecified), the TGI was above 100 µM.

In turn, `COc1ccc([C@H]2C=[N+]([O-])O[C@H](OC3CCCC3)[C@@H]2OC(C)=O)cc1OC` displayed a TGI of 67.5 µM.

For the compound `O=[N+]([O-])c1cccc2c(N=Nc3ccc4ccccc4c3O)c(O)cc(S(=O)(=O)O)c12`, the TGI was above 100 µM.

The values are drawn from PubChem BioAssay (NCI).
